Reference: patent US10047341B2, “Generation of keratinocytes from pluripotent stem cells and maintenance of keratinocyte cultures” (FUJIFILM Cellular Dynamics, Inc., priority 2014, dated 2018)
“Also recorded” adds a separate entry of the source.

Experiments:
human ESC/iPSCs = assay: iKCs derivation from human ESC/iPSCs: critical medium components; format: cell-based; settings: for K14 expression with different fibroblast growth factors: anti-K14 immunofluorescence
[1] = system: primary keratinocytes cultured in KCM4; format: cell-based, human; settings: Passage 3 keratinocytes in KCM4, 1.5 mM Ca^2+ for 3 days
Experimental: Keratinocytes were cultured in KCM4 and at 80%-90% confluence, cells were either treated with 1.5 mM Ca^2+ for 3 days or fixed (no calcium control). Cells were assessed by immunocytochemistry for expression of differentiation markers Kl, Loricrin, and Filaggrin using polyclonal rabbit antibodies (Covance).

[2] = system: primary human keratinocytes; assay: Long-term culture of primary keratinocytes (population doubling); settings: for life span and stemness of primary keratinocytes in culture: niacinamide 3 mM, BMP4 0.5 ng/mL as components of KCM4; for keratinocyte growth: KCM1 with IGF or insulin 0-10 μg/mL
Experimental: Keratinocytes were maintained in the indicated medium and passaged every 4-5 days (at ˜80% confluence). For passage, keratinocytes were incubated with a 0.1% Trypsin in Versene solution at 37° C. for 5 minutes. The trypsin was neutralized with 0.5 mg/mL of trypsin inhibitor. The cells were centrifuged at 1200 rpm for 4 min. Cells were counted with a Cellometer (Nexcelom). Cells (25,000-50,000) were plated per well of 6-well plates in the indicated keratinocyte culture media. Media was changed every other day.
Cells were maintained by serial passage at ˜80% confluence until senescence. The total number of cell doublings for each passage was calculated using the following formula: 3.32 log(N/No). Where No refers to the number of cells plated at the beginning of each passage and N is the number of cells recovered at the end of each passage.

[3] = system: primary human keratinocytes; assay: Morphology analysis of primary keratinocytes; format: cell-based
[4] = system: primary human keratinocytes; assay: Colony formation assay (CFA) of primary keratinocytes; format: cell-based; settings: for performance in CFA: KCM1 supplemented with either IGF or insulin, CFA in KCM1 (10 μg/mL insulin), 12 days
Experimental: Cells were plated at low density (250 cells/well of a 6-well plate) and allowed to grow for 8-12 days. For FIGS. 7 and 8, cells were switched from the indicated culture medium to KCM1 (10 μg/mL insulin) at the beginning of the CFA. Keratinocytes were cultured in KCM1 (10 μg/mL insulin) for 12 days and colony size was measured. For FIGS. 9, 10, and 12, the CFAs were performed with the medium used for maintaining the keratinocytes. KCM4 needed to be supplemented with 5 μg/mL insulin to support colony growth. Colonies were allowed to grow for 8 days and colony size was measured. Following culture, plates were fixed and stained with Hoechst stain. The whole plate was imaged at 40× with an ImageXpress high content imager (Molecular Devices). The total number of colonies per well was counted and the size of each colony was measured using ImageJ software. Colony counts are shown in bar graphs where bar height represents the average number of colonies/well for each passage and the error bars represent the standard deviation. Colony sizes are presented in box and whisker plots where the center line represents the median, the box represents the inter-quartile range and the whiskers represent the 5-95 percentile. Data that fall outside this range are plotted individually.

[5] = Passage 0, Day 14 differentiation culture, phase-contrast
[6] = Passage 0, Day 14 differentiation culture
[7] = KCM1, IGF and low concentrations of insulin (0.05 μg/mL and 0 μg/mL)

`Cc1cccc(-c2[nH]ncc2-c2ccc3ncccc3n2)n1` [TGFRKi, TGFβ RI Kinase Inhibitor II, reference compound] was tested. Which “iKCs derivation when component is left out of the media” value (human ESC/iPSCs; [5]) did it give?
The value was “iKCs cannot be derived efficiently”.

What does the source list for `[Ca+2]` [calcium]?
expression of differentiation markers Keratin 1, Loricrin, and Filaggrin [1]: Expression of all three differentiation markers was detected; differentiation at too high medium level of component (human ESC/iPSCs; 1 mM): simple epithelial progenitors would not further differentiate into keratinocytes

Which results are given for `NC(=O)c1cccnc1` [niacinamide, reference compound]?
life span and stemness of primary keratinocytes in culture [2]: maintained the stemness of primary keratinocyte stem cells in culture; life span and stemness of primary keratinocytes in culture ([2]; listed as Niacinamide): extend the life span of primary keratinocytes in culture; differentiation when concentration of component is not sufficient (human ESC/iPSCs; [5]): the differentiation process was incomplete; cell size ([3]; primary keratinocytes cultured in the indicated medium): made the cells smaller

For “EGF: epidermal growth factor (NSDSECPLSHDGYCLHDGVCMYIEALDKYACNCVVGYIGERCQYRDLKWWELR; UniProt P01133 971-1023, looked up)”, which “differentiation when concentration of component is not sufficient” value (human ESC/iPSCs; [5]) is on record?
Its value is “the differentiation process was incomplete”.

How did the “K14 expression with different fibroblast growth factors” value (human ESC/iPSCs; [6]) turn out when FGF1: acidic fibroblast growth factor was run?
Its value is “efficiently direct cells to express mature keratinocyte marker K14”.

Which “K14 expression with different fibroblast growth factors” value (human ESC/iPSCs; [6]) does the source give for FGF2: fibroblast growth factor FGF2 here?
The value was “did not promote homogeneous K14 expression”.

“IGF: IGF1 growth factor, medium supplement (10 ng/mL)” was tested. Which keratinocyte growth [2] did it give?
Its keratinocyte growth is “support human neonatal foreskin primary keratinocyte growth”.

What about the “performance in CFA” value [4] of the same compound?
Its value is “performed similarly”.

What about the “morphology at later passages (p6)” value [3, 7] of the same compound?
The value was “smaller and appear to be more tightly attached to each other”.

What does the source list for VEGF?
proliferative potential in long-term culture ([2]; VEGF 25 ng/mL added to KCM4): increase the proliferative potential of keratinocytes; also recorded: increased the proliferative potential of primary keratinocytes; effect in CFA in later passages ([4]; VEGF 25 ng/mL added to KCM4): Positive effect; morphology after addition of VEGF ([3]; VEGF 25 ng/mL added to KCM4): did not show any morphological differences

Which keratinocyte growth [2] does the source give for “insulin: insulin, medium supplement (0-10 μg/mL)” here?
Its keratinocyte growth is “grew well at all concentrations”.

What about the keratinocyte growth ([2]; listed as Insulin) of the same compound?
Its keratinocyte growth is “support human neonatal foreskin primary keratinocyte growth”.

What about the “performance in CFA” value [4] of the same compound?
Its value is “performed similarly”.

What about the “morphology at later passages (p6)” value [3, 7] of the same compound?
The value was “smaller and appear to be more tightly attached to each other”.

And the “morphology at later passages (p6)” value ([3]; KCM1, high concentrations of insulin (1 μg/mL and higher))?
Its value is “many larger, differentiated cells”.
